From patent publication US20220331322A1, “COMPOUND FOR INHIBITING CELL DEATH” (Christian-Albrechts-Universität zu Kiel, priority 2019, published 2022)
Where a SMILES comes first, the peptide text is derived from it. The star is where a group is joined. Cbz = O=C(OCc1ccccc1)*; CH2F = FC*

Assays:
L929 cells [1] = test: Time profile of blocking TZ-induced necroptosis, FACS (7-AAD/Annexin V); format: cell-based, murine; details: L929, 10 ng/ml TNF-α + 25 μM zVAD (TZ), 24 h; primidone 1 mM, Nec-1s 25 μM; one representative experiment of three
Protocol: The time profile of primidone for blocking cell death was compared to the one of Nec-1s. For this purpose, murine L929 cells were stimulated at 37° C. for 24 h with 10 ng/ml TNF-α+25 μM zVAD (TZ) in the presence of 1 mM primidone and 25 μM Nec-1s, respectively, for the indicated durations. Nec-1s and primidone were added 30 min before, 60 min and 180 min after the induction of RIPK1-mediated necroptosis, respectively. Cell death was quantified by FACS analysis using 7-amino-actinomycin D and phosphatidylserine accessibility (Annexin V staining) as markers.

RIPK1 = molecular target: T1, RIPK1 (Homo sapiens, UniProt Q13546); test: KINOMEscan profiling kinase assay
T1 sequence (Q13546 1-671): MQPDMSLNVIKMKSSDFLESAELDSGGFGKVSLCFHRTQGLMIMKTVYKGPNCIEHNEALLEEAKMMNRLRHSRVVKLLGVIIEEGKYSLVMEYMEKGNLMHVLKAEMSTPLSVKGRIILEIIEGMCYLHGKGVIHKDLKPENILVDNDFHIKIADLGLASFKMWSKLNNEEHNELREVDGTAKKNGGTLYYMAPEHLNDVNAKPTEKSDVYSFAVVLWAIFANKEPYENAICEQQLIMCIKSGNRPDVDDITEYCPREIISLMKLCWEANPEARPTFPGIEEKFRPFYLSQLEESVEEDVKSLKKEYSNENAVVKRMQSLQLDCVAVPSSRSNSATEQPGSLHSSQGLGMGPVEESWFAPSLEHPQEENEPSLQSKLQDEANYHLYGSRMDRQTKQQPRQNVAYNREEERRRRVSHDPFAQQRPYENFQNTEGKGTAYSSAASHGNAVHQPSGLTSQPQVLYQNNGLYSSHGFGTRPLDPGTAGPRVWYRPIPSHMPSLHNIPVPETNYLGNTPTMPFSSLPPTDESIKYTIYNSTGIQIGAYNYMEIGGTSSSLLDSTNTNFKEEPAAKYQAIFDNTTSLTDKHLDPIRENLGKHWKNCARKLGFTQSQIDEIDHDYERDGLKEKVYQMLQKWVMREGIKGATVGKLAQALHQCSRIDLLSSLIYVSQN
Protocol: To clarify, a KINOMEscan™ profiling kinase assay was performed. […] Dissociation constants (Kd) for test compound-kinase interactions are calculated by measuring the amount of kinase captured on the solid support as a function of the test compound concentration.

L929 cells [2] = test: TLR3-mediated cell death induced by poly (I:C) + zVAD; format: cell-based, murine; details: L929, 1 μg/ml poly (I:C) + 25 μM zVAD, 24 h; primidone 1 mM, Nec-1s 20 μM
Text: Cell death was induced by activation of the Toll-like receptor 3 (TLR3). TLR3 is mainly expressed on immune cells, where it senses pathogen-associated molecular patterns and initiates innate immune response. The TLR3 agonist poly (I:C) was developed to mimic pathogens infection and boost immune system activation. In experimental models, poly (I:C) is known to induce regulated cell death in cells expressing TLR3. To examine whether primidone also blocks TLR3-mediated cell death, murine L929 cells were stimulated for 24 h at 37° C. with vehicle (a), 1 μg/ml of the TLR3 ligand poly (I:C) alone (b) or in combination with 25 μM zVAD (c). In addition, cells were stimulated with 1 μg/ml poly (I:C), 25 μM zVAD and 20 μM Nec-1s (d) and with 1 μg/ml poly (I:C), 25 μM zVAD and 1 mM primidone (e).

L929 cells [3] = test: Stimulation assay: TNF-α + 5Z-7 (± zVAD) induced RIPK1-dependent apoptosis/necroptosis; format: cell-based, murine; details: primidone 1 mM, Nec-1s 20 μM; for Block of RIPK1-dependent apoptosis (RDA): L929, 10 ng/ml TNF-α + 1 μM 5Z-7, 24 h, zVAD 25 μM
Protocol: Murine fibroblasts (L929 cells) were stimulated for 24 h at 37° C. in the presence of (a) vehicle, (b) 10 ng/ml tumor necrosis factor alpha (TNF-α), (c) 1 μM 5Z-7-oxozeaenol (5Z-7), (d) a combination of 10 ng/ml TNF-α and 1 μM 5Z-7, (e) a combination of 10 ng/ml TNF-α, 1 μM 5Z-7, and 20 μM necrostatin-1 (Nec-1s), (f) a combination of 10 ng/ml TNF-α, 1 μM 5Z-7, and 1 mM primidone (primidone is referred to in the Figures as compound A), (g) a combination of 10 ng/ml TNF-α, 1 μM 5Z-7, and 25 μM zVAD, (h) a combination of 10 ng/ml TNF-α, 1 μM 5Z-7, and 20 μM Nec-1s, and (i) a combination of 10 ng/ml TNF-α, 1 μM 5Z-7, 25 μM zVAD, and 1 mM primidone. TNF-α is a pro-inflammatory cytokine which triggers cell survival (canonical pathway) or cell death, depending on the cellular context. 5Z-7-oxozeaenol (5Z-7) is an inhibitor of transforming growth factor activated kinase 1 (TAK1). TAK1 is an intermediate in the signaling pathway of the TNF-receptor type 1 (TNFR1), and it is known that TAK1 is essential for the prevention of TNF-induced cell death. Cells in which TAK1 is disrupted or otherwise blocked are hypersensitive to TNF-α-induced cell death due to diminished prosurvival pathways including NF-κB and reduced antioxidant enzymes which results in activation of caspases. The compound zVAD is a pan-caspase inhibitor.

L929 cells [4] = test: TZ-induced RIPK1-dependent necroptosis, metabolites; format: cell-based, murine; details: L929, 10 ng/ml TNF-α + 25 μM zVAD, 24 h; 1 mM PEMA or PB
Protocol: Murine fibroblasts (L929 cells) were incubated for 24 h at 37° C. in the presence of (a) vehicle, (b) 1 mM PEMA or PB, respectively, (c) a combination of 10 ng/ml TNF-α+25 μM zVAD (TZ), and (d) a combination of TZ+PEMA or TZ+PB, respectively.

Jurkat cells = test: Anti-Fas antibody induced RIPK1-independent apoptosis; format: cell-based, human; details: 5 ng/ml anti-Fas antibody, 5 h, zVAD 25 μM, primidone 1 mM
Protocol: To this end, human T cells (Jurkat cells) were incubated for 5 h at 37° C. in the presence of (a) vehicle, (b) 5 ng/ml anti-Fas antibody, (c) 5 ng/ml anti-Fas antibody in combination with 25 μM of the pan-caspase inhibitor zVAD, and (d) 5 ng/ml anti-Fas antibody in combination with 1 mM primidone. The addition of the anti-Fas antibody induces apoptosis, a caspase-dependent form of regulated cell death that can be inhibited by the addition of the pan-caspase inhibitor zVAD.

Q: Which “Cells still alive, compound added 60 min after induction of cell death” value (L929 cells [1]) does the source give for `CN1C(=O)NC(Cc2c[nH]c3c(Cl)cccc23)C1=O` (stereo not shown) [Nec-1s] here?
A: The value was 85.0%.

Q: What about the “Cells still alive, compound added 3 hours after induction of cell death” value (L929 cells [1]) of the same molecule?
A: Its value is 16.3%.

Q: And the “Binding to RIPK1 kinase domain (prevention of kinase binding to immobilized ligand)” value (RIPK1)?
A: Its value is “prevents the kinase from binding to an immobilized ligand”.

Q: What about the “Protection from RIPK1-mediated cell death induced by poly (I:C) and zVAD” value (L929 cells [2]) of the same molecule?
A: The value was “effectively protect cells”.

Q: What about the “Block of RIPK1-dependent necroptosis” value (L929 cells [3]; L929, 10 ng/ml TNF-α + 1 μM 5Z-7 + 25 μM zVAD, 24 h) of the same molecule?
A: The value was “prevents RIPK-1 dependent cell death”.

Q: And the “Block of RIPK1-dependent apoptosis (RDA)” value (L929 cells [3])?
A: Its value is “can be blocked”.

Q: `CCC1(c2ccccc2)C(=O)NC(=O)NC1=O` [PB, 5-Ethyl-5-phenyl-1,3-diazinane-2,4,6-trione] was tested. Which “Block of TZ-induced RIPK1-dependent cell death (necroptosis)” value (L929 cells [4]) did it give?
A: Its value is “can be blocked”.

Q: `CCC(C(N)=O)(C(N)=O)c1ccccc1` [PEMA, 2-Ethyl-2-phenylmalonamide] was tested. Which “Block of TZ-induced RIPK1-dependent cell death (necroptosis)” value (L929 cells [4]) did it give?
A: The value was “can be blocked”.

Q: Which results are given for `CC(NC(=O)C(NC(=O)OCc1ccccc1)C(C)C)C(=O)NC(CC(=O)O)C(=O)CF` (stereo not drawn) [zVAD] (Cbz-Val-Ala-Asp-CH2F; configuration not given here)?
A: Inhibition of anti-Fas antibody induced cell death (caspase-dependent, RIPK1-independent) (Jurkat cells): completely blocked; Block of RIPK1-dependent apoptosis (RDA) (L929 cells [3]): cell death occurs
